Measurements from US20010044445A1, “AZOLE INHIBITORS OF CYTOKINE PRODUCTION” (priority 1999, published 2001).

How the values were obtained:
[1] = test system: Human peripheral blood mononuclear cells; assay: Human Concanavalin-A Proliferation Assay (Con HU Assay); type: cell-based; conditions: Homo sapiens, PBMC, concanavalin-A stimulated human PBMC; for IC50: tritiated thymidine; for inhibition at 10 µM / inhibition at 100 µM / inhibition at 1 µM: 72 h, 3 days, read-out: % Inhibition of proliferation (at concentrations of 1,10, or 100 μm); for inhibition at 10 µM: concentration 10 μm (in parentheses in the cell); for inhibition at 100 µM: concentration 100 μm (in parentheses in the cell); for inhibition at 1 µM: concentration 1 μm (in parentheses in the cell)
Method in brief: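 Proliferation read as tritiated thymidine uptake (0.5 μCi/well, 6 h pulse on day 3) in human PBMC cultured 3 days with 2.5 μg/ml (final) concanavalin-A. Cells, 50,000 per well in supplemented RPMI 1640 with 10% FBS, received compound 15 min before mitogen.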

melting point [°C] | SMILES | IC50 [1] [µM] | inhibition at 10 µM [1] [%] | inhibition at 100 µM [1] [%] | inhibition at 1 µM [1] [%]
185 to 188 | O=C(Nc1ccc(-n2nc(C(F)(F)F)cc2C(F)(F)F)cc1)c1cccnc1 [Example 106, N-[4-[3,5-bis(trifluoromethyl)-1H-pyrazol-1-yl]phenyl]-3-pyridinecarboxamide] | 0.237 | 100 |  | 
203 to 204 | O=C(Nc1ccc(-n2nc(C(F)(F)F)cc2C(F)(F)F)cc1)c1cccc([N+](=O)[O-])c1 [Example 140, N-[4-[3,5-bis(trifluoromethyl)-1H-pyrazol-1-yl]phenyl]-3-nitrobenzamide] | 0.298 |  | 100 | 
210 to 212 | CS(=O)(=O)c1csc(C(=O)Nc2ccc(-n3nc(C(F)(F)F)cc3C(F)(F)F)cc2)c1Cl [Example 165, N-[4-[3,5-bis(trifluoromethyl)-1H-pyrazol-1-yl]phenyl]-3-chloro-4-(methylsulfonyl)-2-thiophenecarboxamide] | 6.7 | 57 |  | 
184 to 186 | O=C(Nc1ccc(-n2nc(C(F)(F)F)cc2C(F)(F)F)cc1)c1ccc(F)cc1 [Example 90, N-[4-[3,5-bis(trifluoromethyl)-1H-pyrazol-1-yl]phenyl]-4-fluorobenzamide] | 0.144 |  | 98 | 
155 to 156 | Cc1ccc(C(=O)Nc2ccc(-n3nc(C(F)(F)F)cc3C(F)(F)F)cc2)c(Cl)n1 [Example 151, N-[4-[3,5-bis(trifluoromethyl)-1H-pyrazol-1-yl]phenyl]-2-chloro-6-methyl-3-pyridinecarboxamide] | 0.295 |  | 99 | 
201 to 202 | O=C(Nc1ccc(F)cc1)Nc1ccc(-n2nc(C(F)(F)F)cc2C(F)(F)F)cc1 [Example 32, N-[4-[3,5-bis(trifluoromethyl)-1H-pyrazol-1-yl]phenyl]-N′-(4-fluorophenyl)urea] | 8.44 |  | 100 | 
229 to 230 | O=C(Nc1ccc(-n2nc(C(F)(F)F)cc2C(F)(F)F)cc1)Nc1ccc([N+](=O)[O-])cc1Cl [Example 41, N-[4-[3,5-bis(trifluoromethyl)-1H-pyrazol-1-yl]phenyl]-N′-(2-chloro-4-nitrophenyl)urea] | 0.343 | 100 |  | 
240 | FC(F)(F)c1cc(C(F)(F)F)n(-c2ccc(NCc3ccccc3Cl)cc2)n1 [Example 82, N-[4-[3,5-bis(trifluoromethyl)-1H-pyrazol-1-yl]phenyl]-2-chlorobenzenemethanamine] | 0.468 |  | 100 | 
164 to 165 | O=C(Nc1ccc(-n2nc(C(F)(F)F)cc2C(F)(F)F)cc1)c1csc([N+](=O)[O-])c1 [Example 257, N-[4-[3,5-bis(trifluoromethyl)-1H-pyrazol-1-yl]phenyl]-5-nitro-3-thiophenecarboxamide] | 0.387 | 100 |  | 
222 to 224 | O=C(Nc1ccc(-n2nc(C(F)(F)F)cc2C(F)(F)F)cc1)c1ccc2c(c1)OCO2 [Example 148, N-[4-[3,5-bis(trifluoromethyl)-1H-pyrazol-1-yl]phenyl]-1,3-benzodioxole-5-carboxamide] | 0.529 |  | 94 | 
173 to 175 | O=C(/C=C/c1ccccc1Cl)Nc1ccc(-n2nc(C(F)(F)F)cc2C(F)(F)F)cc1 [Example 21, (E)-N-[4-[3,5-bis(trifluoromethyl)-1H-pyrazol-1-yl]phenyl]-3-(2-chlorophenyl)-2-propenamide] |  |  |  | 2
204 to 205 | O=C(Nc1ccc(-n2nc(C(F)(F)F)cc2C(F)(F)F)cc1)C1CC1 [Example 1, N-[4-[3,5-bis(trifluoromethyl)-1H-pyrazol-1-yl]phenyl]cyclopropanecarboxamide] |  |  |  | 68
148 to 151 | O=C(Nc1ccc(-n2nc(C(F)(F)F)cc2C(F)(F)F)cc1)c1cccc(F)c1 [Example 146, N-[4-[3,5-bis(trifluoromethyl)-1H-pyrazol-1-yl]phenyl]-3-fluorobenzamide] | 0.269 |  | 98 | 

The remaining lines, values behind:

SMILES | melting point [°C] | IC50 [1] [µM] | inhibition at 10 µM [1] [%] | inhibition at 100 µM [1] [%] | inhibition at 1 µM [1] [%]
COc1cc(C(F)(F)F)nn1-c1ccc(NC(=O)c2cccnc2F)cc1 [Example 317, 2-fluoro-N-(4-(5-methoxy-3-(trifluoromethyl)-1H-pyrazol-1-yl)phenyl)nicotinamide] | 153 to 154 | 0.186 |  |  | 
O=C(Nc1ccc(-n2nc(C(F)(F)F)cc2Cl)cc1)c1ccncc1F [Example 328, N-(4-(5-chloro-3-(trifluoromethyl)-1H-pyrazol-1-yl)phenyl)-3-fluoroisonicotinamide] | 128 to 129 | 0.075 |  |  | 
O=C(Cc1ccc(Cl)cc1)Nc1cccc(-n2nc(C(F)(F)F)cc2C(F)(F)F)c1 [Example 197, N-[3-[3,5-bis(trifluoromethyl)-1H-pyrazol-1-yl]phenyl]-4-chlorobenzeneacetamide] | 209 to 211 |  |  |  | 1
Cc1noc(C)c1C(=O)Nc1ccc(-n2nc(C(F)(F)F)cc2C(F)(F)F)c(C(F)(F)F)c1 [Example 275, N-[4-[3,5-bis(trifluoromethyl)-1H-pyrazol-1-yl]-3-(trifluoromethyl)phenyl]-3,5-dimethyl-4-isoxazolecarboxamide] | 61 to 63 |  |  |  | 8
O=C(Nc1ccc(-n2nc(C(F)(F)F)cc2Br)cc1)c1ccncc1Cl [Example 349, N-(4-(5-bromo-3-(trifluoromethyl)-1H-pyrazol-1-yl)phenyl)-3-chloroisonicotinamide] | 79 to 82 | 0.224 |  |  | 
O=C(Nc1ccc(-n2nc(C(F)(F)F)cc2C(F)(F)F)cc1)c1c(F)c(F)cc(F)c1F [Example 234, N-[4-[3,5-bis(trifluoromethyl)-1H-pyrazol-1-yl]phenyl]-2,3,5,6-tetrafluorobenzamide] | 235 to 237 | 0.061 | 99 |  | 
CC1(C(=O)Nc2ccc(-n3nc(C(F)(F)F)cc3C(F)(F)F)cc2)CC1(Cl)Cl (stereo not drawn) [Example 3, N-[4-[3,5-bis(trifluoromethyl)-1H-pyrazol-1-yl]phenyl]-2,2-dichloro-1-methylcyclopropanecarboxamide] | 143 to 145 | 0.328 | 100 |  | 
Cc1nnsc1C(=O)Nc1ccc(-n2nc(C(F)(F)F)cc2Br)cc1 [Example 335, N-(4-(5-bromo-3-(trifluoromethyl)-1H-pyrazol-1-yl)phenyl)-4-methyl-1,2,3-thiadiazole-5-carboxamide] | 145 to 147 | 0.103 |  |  | 
O=C(Nc1ccc(-n2nc(C3CCCO3)cc2C(F)(F)F)cc1)c1ccncc1F (stereo not drawn) [Example 345, 3-fluoro-N-(4-(3-tetrahydro-2-furanyl-5-(trifluoromethyl)-1H-pyrazol-1-yl)phenyl)isonicotinamide] | 116 to 118 | 0.273 |  |  | 
CCCCCCOc1ccc(C(=O)Nc2ccc(-n3nc(C(F)(F)F)cc3C(F)(F)F)cc2)cc1 [Example 74, N-[4-[3,5-bis(trifluoromethyl)-1H-pyrazol-1-yl]phenyl]-4-(hexyloxy)benzamide] | 153 to 155 | 22.8 |  | 83 | 
